Results taken from publication PMC6691773, “Non-covalent immunoproteasome inhibitors induce cell cycle arrest in multiple myeloma MM.1R cells” (Journal of Enzyme Inhibition and Medicinal Chemistry, 2019).

Assays:
[1] = molecular target: Human 20S immunoproteasome β1i (Homo sapiens, UniProt P28065); assay: 20S immunoproteasome inhibition, β1i chymotrypsin-like activity (Ac-Pro-Ala-Leu-AMC)
Procedure: (§3) Human 20S immunoproteasome was incubated at 30 °C at a final concentration of 0.004 mg/mL with test compound present at variable concentrations. The reaction buffer consisted of 50 mM Tris HCl, pH 7.4, 10 mM NaCl, 25 mM KCl, 1 mM MgCl2, 0.03% SDS. Product release from substrate hydrolysis (50 µM) was monitored continuously over a period of 10 min.

[2] = molecular target: Human 20S immunoproteasome β5i (Homo sapiens, UniProt P28062); assay: 20S immunoproteasome inhibition, β5i chymotrypsin-like activity (Suc-Leu-Leu-Val-Tyr-AMC); settings: for inhibition at 100 µM: read-out: inhibition of one or two ChT-L activities
Procedure: as §3

[3] = molecular target: β5c subunit of constitutive proteasome; parameters: method as in PMID 24561716, PMID 24946214; settings: ChT-L activity of constitutive proteasome; read-out: Ki against β5c subunit; cited from earlier work
[4] = molecular target: T1, Human 20S immunoproteasome β2i (Homo sapiens, UniProt P40306); assay: 20S immunoproteasome inhibition, β2i trypsin-like activity (Boc-Leu-Arg-Arg-AMC); assay type: biochemical; settings: 100 µM inhibitor, preliminary screening
T1 construct: Human 20S immunoproteasome, isolated from human spleen; purchased Enzo Life Science; host or cells: human spleen (tissue-isolated)
Procedure: Human 20S immunoproteasome, isolated from human spleen, was purchased from Enzo Life Science Supplier. The three distinct proteolytic activities of the 20S immunoproteasome were measured by monitoring the hydrolysis of the peptidyl 7-amino-4-methyl coumarin substrates Suc-Leu-Leu-Val-Tyr-AMC (Bachem), Boc-Leu-Arg-Arg-AMC (Bachem) and Ac-Pro-Ala-Leu-AMC (Biomol GmbH) for β5i, β2i and β1i activities of immunoproteasome, respectively. […] Inhibitor solutions were prepared from stocks in DMSO. Each independent assay was performed twice in duplicate in 96-well-plates in a total volume of 200 µL. Fluorescence of the product AMC of the substrate hydrolyses was measured using an Infinite 200 PRO microplate reader (Tecan, Männedorf, Switzerland) at 30 °C with a 380 nm excitation filter and a 460 nm emission filter.
Human 20S immunoproteasome was incubated at 30 °C at a final concentration of 0.004 mg/mL with test compound present at variable concentrations. The reaction buffer consisted of 50 mM Tris HCl, pH 7.4, 50 mM NaCl, 0.5 mM EDTA III, 0.03% SDS. Product release from substrate hydrolysis (50 µM) was monitored continuously over a period of 10 min.

MM.1R cells = assay: Cytotoxicity by MTT assay; assay type: cell-based; settings: Homo sapiens, 24 h, dexamethasone-resistant cells, read-out: EC50 against MM.1R cells
Procedure: To test the efficacy of 5 and 6 a cell viability assay was performed. Human multiple myeloma cells (MM.1R; ATCC® CRL-2975™) resistant to dexamethasone were purchased by LGC Standards (Milan, Italy) and cultured under standard conditions (37 °C, 5% CO2) with standard RPMI 1640 medium added with L-glutamine, 10% foetal bovine serum, and 1% antibiotic mixture (penicillin/streptomycin) in sterile flasks. Cells were grown for a week before the assay. Compounds 5–6 were tested at different doses (1–10-20–40-80–100 µM) in a 96 well plate for 24 h to determine the cytotoxic effect. […] At the end of the 5 h, the medium was removed and the insoluble formazan crystals were dissolved with 200 µl/well of dimethyl sulphoxide (DMSO), and the absorbance was read at 540 and 620 nm. The difference between the two absorbance values was used to calculate mean for each replicate and further assess cytotoxicity. […] Results were expressed as % of vitality and reported as means and SEM.
To test the efficacy of compounds 5–6 in a cell system, we used dexamethasone-resistant human multiple myeloma cells (MM.1R), which are less responsive to chemotherapy, and are representative of patients in the later stages of the disease, as previously described. […] MM.1R cell survival was determined by the tetrazolium dye MTT assay and untreated cells were used as reference and assumed as the 100% of vital cells (Figure 2).

ubiquitin in MM.1R cells = assay: Ubiquitin accumulation by western blot; assay type: cell-based, human; settings: 24 h, versus ctrl
Procedure: (§1) To test the inhibitory effect on proteasome activity, ubiquitin, cyclins, CDK, NF-kB and pNF-kB were assessed by western blot. […] After 24 h, cells were collected and protein extracted for analysis. Protein extraction and western blot analysis were performed as previously described.
(§2) Briefly, a total of 15 µg of proteins were loaded in each lane and specific antibodies were used to detect ubiquitin (Abcam, Cambridge, UK), cyclin A, cyclin B, cyclin D1, CDK1, CDK4/6, NF-kB, pNF-kB, PARP, and Caspase-3 (Cell Signaling, Danvers, MA, United States). Beta actin (Cell Signaling), was used on stripped blots as loading control. The images have been acquired using a dedicated software and densitometric data were expressed as integrated intensity and reported as means and SEM.
To test the efficacy of these compounds in inhibiting ubiquitinated protein degradation, a western blot analysis of ubiquitin was performed (Figure 3). In fact, considering that proteasome inhibition leads the cells to accumulate ubiquitinated protein into the cytoplasm, we decided to assess the changes in levels of total ubiquitinated proteins indirectly, by detecting changes in total ubiquitin levels, by western blot analysis. […] It is worth noting that these changes were dose-dependent, this adding an additional level of confidence in our experimental approach.

cyclin A in MM.1R cells = assay: Cyclin A level by western blot; assay type: cell-based, human; settings: 24 h, 15 and 20 µM
Procedure: as §1, §2

cyclin D1 in MM.1R cells = assay: Cyclin D1 level by western blot; assay type: cell-based, human; settings: 24 h, 20 µM
Procedure: as §1, §2

pNF-kB in MM.1R cells = assay: pNF-kB level by western blot; assay type: cell-based, human; settings: 24 h
Procedure: as §1, §2

PARP in MM.1R cells = assay: PARP expression by western blot; assay type: cell-based, human; settings: 24 h
Procedure: as §1, §2

Caspase-3 in MM.1R cells = assay: Caspase-3 expression by western blot; assay type: cell-based, human; settings: 24 h
Procedure: as §1, §2

cyclin B in MM.1R cells = assay: Cyclin B level by western blot; assay type: cell-based, human; settings: 24 h, 20 µM
Procedure: as §1, §2

CDK1 in MM.1R cells = assay: CDK1 level by western blot; assay type: cell-based, human; settings: 24 h, p < .05
Procedure: as §1, §2

CDK4/6 in MM.1R cells = assay: CDK4/6 level by western blot; assay type: cell-based, human; settings: 24 h, p < .0005
Procedure: as §1, §2

NF-kB in MM.1R cells = assay: NF-kB level by western blot; assay type: cell-based, human; settings: 24 h
Procedure: as §1, §2

CC(C)CCNC(=O)Cn1ccc2ncccc2c1=O [Compound 1]
Ki [1]: 4.9 µM
Ki [2]: 4.39 µM

CC(C)CCNC(=O)Cn1ccc2c(c1=O)CCCN2 [Compound 3]
Ki [3]: 10.5 µM

CC(C)CCNC(=O)Cn1cc(Br)c2ncccc2c1=O [Compound 5]
inhibition at 100 µM [4]: 19%
EC50 (MM.1R cells): 21.2 µM
ubiquitin accumulation (ubiquitin in MM.1R cells; all tested concentrations): no significant increase
cyclin A level (cyclin A in MM.1R cells): No trend of reduction
cyclin D1 level (cyclin D1 in MM.1R cells): able to reduce
pNF-kB level (pNF-kB in MM.1R cells): paradoxical increase
PARP expression (PARP in MM.1R cells): No significant difference
Caspase-3 expression (Caspase-3 in MM.1R cells): No significant difference
Ki [3]: 0.56 µM
inhibition at 100 µM ([1]; read-out: % of inhibition at 100 µM β1i): 36%
Ki [2]: 6.04 ± 0.29 µM
inhibition at 100 µM [2]: > 70%

CC(C)CCNC(=O)Cn1ccc2ccc(Br)cc2c1=O [Compound 6]
inhibition at 100 µM [4]: 24%
EC50 (MM.1R cells): 17.8 µM
ubiquitin accumulation (ubiquitin in MM.1R cells; 20 µM): significant increase
cyclin A level (cyclin A in MM.1R cells): very significant (p < .005) reduction
cyclin B level (cyclin B in MM.1R cells): consistent reduction
cyclin D1 level (cyclin D1 in MM.1R cells): consistent reduction
CDK-1 level (CDK1 in MM.1R cells): changed
CDK4/6 level (CDK4/6 in MM.1R cells): changed
NF-kB level (NF-kB in MM.1R cells): dose-dependent increase
pNF-kB level (pNF-kB in MM.1R cells): trend of reduction
PARP expression (PARP in MM.1R cells): No significant difference
Caspase-3 expression (Caspase-3 in MM.1R cells): No significant difference
Ki [3]: 2.34 µM
Ki [1]: 4.9 ± 0.04 µM
Ki [2]: 4.39 ± 0.18 µM
inhibition at 100 µM [2]: > 70%
